Source: patent US8633322B2, “Alkynyl derivatives useful as DPP-1 inhibitors” (Janssen Pharmaceutica NV, priority 2009, dated 2014)

Target: T1, recombinant human DPP-1 (Cathepsin C) (Homo sapiens, UniProt P53634)
T1 construct: made in house
Assay: DPP-1 Inhibition Assay (In Vitro), fluorogenic substrate GR-AMC
Assay type: biochemical
Details: room temperature; 0.15 nM DPP-1, 10 uM GR-AMC, pH 7.0; average where tested multiple times
Protocol: Test compounds were assessed for DPP-1 (Cathepsin C) inhibitory activity using a fluorogenic substrate, GR-AMC (Glycine-Arginine-amino-4-methylcoumarin, Bachem, 1-1215). The amount of amino-methylcoumarin released is proportional to the DPP-1 activity, and the reaction is monitored kinetically with a Molecular Devices plate reader using black 96-well plates.
All compounds were tested under room temperature conditions. The assay buffer consisted of 50 mM HEPES, pH 7.0, 100 mM NaCl, 2 mM glutathione (GSH), and 0.002% TWEEN 20. GSH and TWEEN 20 were added to the buffer fresh daily. Just prior to use, an in-house preparation of recombinant human DPP-1 (240 μM stock, MW 49.6 kD) was diluted 600-fold in assay buffer containing fresh 2 mM dithiothreitol (DTT) to activate the enzyme, then diluted into assay buffer (without DTT) 133-fold for a DPP-1 working solution of 3 nM. Test compounds were diluted in DMSO for 20× their final assay concentrations.
Additions to a 96-well black Costar 3915 plates were as follows: 90 μL of 11 μM GR-AMC, 5 μL test compound (followed by mixing), and 5 μL 3 nM DPP1 to start the reaction. Fluorescent reactions were monitored kinetically at 360 nm excitation, 440 nm emission on a Molecular Devices Spectramax XPS reader. The Softmax Pro software of the reader determined the initial velocity of the selected data (the first 3-5 minutes of the reaction), and the best linear regression fit of the initial kinetic data. Final assay conditions were 0.15 nM DPP-1, 10 uM GR-AMC, 50 mM HEPES, pH 7.0, 100 mM NaCl, 2 mM GSH, 0.002% TWEEN 20, 1 uM DTT, 5.0% DMSO. Initial velocity rates were plotted vs. test compound concentration by use of a four-parameter logistics equation (nonlinear regression, sigmoidal dose-response (variable slope), with fixed Hill (1.0) using GraphPad Prism® software for determination of DPP-1 IC50. Within-run assay coefficient of variation (CV) was generally <10%; between-run CV <20%.
Representative compounds of the present invention were tested according to the procedure as described above, with results as listed in Table 2, below. Additionally, Table 2 below lists the measured mass for said representative compounds of the present invention, more particularly the mass of the MH^+ ion.

T1 sequence (P53634 25-463): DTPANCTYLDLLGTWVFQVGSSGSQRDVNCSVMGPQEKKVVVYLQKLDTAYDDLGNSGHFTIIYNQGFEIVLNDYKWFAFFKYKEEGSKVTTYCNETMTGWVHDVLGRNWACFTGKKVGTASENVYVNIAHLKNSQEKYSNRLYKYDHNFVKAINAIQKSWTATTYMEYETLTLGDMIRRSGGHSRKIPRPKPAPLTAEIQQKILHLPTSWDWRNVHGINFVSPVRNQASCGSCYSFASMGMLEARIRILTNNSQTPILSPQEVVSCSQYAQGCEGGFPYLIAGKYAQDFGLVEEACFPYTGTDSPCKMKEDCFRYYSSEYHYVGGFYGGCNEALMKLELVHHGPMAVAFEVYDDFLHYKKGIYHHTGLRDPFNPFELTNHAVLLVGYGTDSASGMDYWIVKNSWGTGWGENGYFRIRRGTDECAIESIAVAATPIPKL

IC50 | SMILES
17 µM | CC[C@@H](N)C(=O)NCCCC#Cc1cccc(OC)c1 [Compound 92]
14 µM | CC[C@H](N)C(=O)NCCCC#Cc1c(C)c(C)cc(C)c1C [Compound 76]
13 µM | CC[C@H](N)C(=O)NCCCC#Cc1c(OC)ccc2ccccc12 [Compound 87]
17 µM | CC[C@H](N)C(=O)NCCCC#Cc1cccc2cnccc12 [Compound 82]
17 µM | CC[C@H](N)C(=O)NCCCC#Cc1ccc(OC)c(OC)c1 [Compound 57]
12 µM | N[C@@H](Cc1ccccn1)C(=O)NCCCC#Cc1cccc(OC2CCNCC2)c1 [Compound 90]
33 µM | CC[C@H](N)C(=O)NCCCC#Cc1cc(C)ccc1C [Compound 77]
1.64 µM | C=CCC[C@H](N)C(=O)NCCCC#Cc1cccc(OC2CCNCC2)c1 [Compound 8]
1.7 µM | CC[C@H](N)C(=O)NCCCC#Cc1ccc2c(c1)Cc1ccccc1-2 [Compound 101]
0.214 µM | CC[C@H](N)C(=O)NCCCC#Cc1ccc(OC)cc1 [Compound 40]
98 µM | NCCC[C@H](N)C(=O)NCCCC#Cc1cccc(OC2CCNCC2)c1 [Compound 13]
9.1 µM | N[C@@H](Cn1cccn1)C(=O)NCCCC#Cc1cccc(OC2CCNCC2)c1 [Compound 19, (S)-2-amino-N-(5-(3-(piperidin-4-yloxy)phenyl)pent-4-ynyl)-3-(1H-pyrazol-1-yl)propanamide]
12 µM | CC[C@H](N)C(=O)NCCCC#Cc1cc(OC)cc(OC)c1 [Compound 59]
2.43 µM | C#CC[C@H](N)C(=O)NCCC#Cc1cccc(OC2CCNCC2)c1 [Compound 6, (S)-2-amino-N-(4-(3-(piperidin-4-yloxy)phenyl)but-3-ynyl)pent-4-ynamide]
12 µM | CC[C@H](N)C(=O)NCCCC#Cc1ccccc1OC [Compound 99]
6 µM | CC[C@H](N)C(=O)NCCCC#Cc1c(F)ccc2ccccc12 [Compound 106]
6.8 µM | CC[C@H](N)C(=O)NCCCC#Cc1ccccc1-c1ccccc1 [Compound 61]
15.3 µM | N[C@@H](CC1CC1)C(=O)NCCCC#Cc1cccc(OC2CCNCC2)c1 [Compound 11]
30 µM | CC(C)C[C@H](N)C(=O)NCCCC#Cc1cccc(OC2CCNCC2)c1 [Compound 31]
11 µM | CC[C@H](N)C(=O)NCCCC#Cc1ccc(C(F)(F)F)cc1 [Compound 58]
6.1 µM | CC[C@H](N)C(=O)NCCCC#Cc1cccc(F)c1F [Compound 102]

IC50 | SMILES
2.9 µM | C#CC[C@H](N)C(=O)NCCCC#Cc1cccc(O[C@@H]2CCCNC2)c1 [Compound 79, (S)-2-amino-N-(5-(3-((R)-piperidin-3-yloxy)phenyl)pent-4-ynyl)pent-4-ynamide]
5 µM | CC[C@H](N)C(=O)NCCCC#Cc1ccc2c(c1)OCCO2 [Compound 97]
7.9 µM | CC[C@H](N)C(=O)NCCCC#Cc1ccccc1 [Compound 98]
26 µM | CC[C@H](N)C(=O)NCCCC#Cc1ccccc1C(F)(F)F [Compound 74]
6 µM | CC[C@H](N)C(=O)NCCCC#Cc1ccc2sccc2c1 [Compound 60]
8 µM | CC[C@H](N)C(=O)NCCCC#Cc1ccccc1O [Compound 104]
15 µM | CC[C@H](N)C(=O)NCCCC#Cc1ccc2ccccc2c1 [Compound 73]
0.52 µM | N[C@@H](Cc1c[nH]cn1)C(=O)NCCCC#Cc1cccc(OC2CCNCC2)c1 [Compound 20]
2.53 µM | CC[C@H](N)C(=O)NCCCC#Cc1cccc2ccccc12 [Compound 41]
7.2 µM | CC[C@H](N)C(=O)NCCCC#Cc1ccc(F)c2ccccc12 [Compound 84]
8.5 µM | CC[C@H](N)C(=O)NCCCC#Cc1ccc(C)c2ccccc12 [Compound 83]
> 10 µM | CC[C@H](N)C(=O)NCCCC#Cc1c(O)ccc2ccccc12 [Compound 105]
6.3 µM | CC[C@H](N)C(=O)NCCCC#Cc1ccc(NC(C)=O)cc1 [Compound 100]
1.7 µM | CCC[C@H](N)C(=O)NCCCC#Cc1cccc(OC2CCNCC2)c1 [Compound 18, (S)-2-amino-N-(5-(3-(piperidin-4-yloxy)phenyl)pent-4-ynyl)pentanamide]
2.4 µM | CC[C@H](N)C(=O)NCCCC#Cc1ccc(OCc2ccccc2)cc1 [Compound 86]
39 µM | CC[C@H](N)C(=O)NCCCC#Cc1ccccc1C1CCCCC1 [Compound 75]
15 µM | N[C@@H](Cc1cccnc1)C(=O)NCCCC#Cc1cccc(OC2CCNCC2)c1 [Compound 33]
5.8 µM | CC[C@H](N)C(=O)NCCCC#Cc1cccc(OC)c1 [Compound 35]
0.4 µM | C#CC[C@H](N)C(=O)NCCCC#Cc1cccc(-c2ccccc2)c1 [Compound 24]
2.5 µM | N[C@@H](CCO)C(=O)NCCCC#Cc1cccc(OC2CCNCC2)c1 [Compound 15, (S)-2-amino-4-hydroxy-N-(5-(3-(piperidin-4-yloxy)phenyl)pent-4-ynyl)butanamide]
1.6 µM | C#CC[C@H](N)C(=O)NCCCC#Cc1cc(OC)cc(OC2CCNCC2)c1 [Compound 7, (S)-2-amino-N-(5-(3-methoxy-5-(piperidin-4-yloxy)phenyl)pent-4-ynyl)pent-4-ynamide]

IC50 | SMILES
3.28 µM | CC[C@H](N)C(=O)NCCCC#Cc1c(C)cccc1C [Compound 49]
0.15 µM | N[C@@H](Cc1cccs1)C(=O)NCCCC#Cc1cccc(OC2CCNCC2)c1 [Compound 63, (S)-2-amino-N-(5-(3-(piperidin-4-yloxy)phenyl)pent-4-ynyl)-3-(thiophen-2-yl)propanamide]
15.3 µM | N[C@@H](Cc1ccccc1)C(=O)NCCCC#Cc1cccc(OC2CCNCC2)c1 [Compound 1]
5.4 µM | CC[C@H](N)C(=O)NCCCC#Cc1ccccc1NC(C)=O [Compound 103]
2.3 µM | CC[C@H](N)C(=O)NCCCC#Cc1cccc(O[C@H]2CCCNC2)c1 [Compound 80, (S)-2-amino-N-(5-(3-((S)-piperidin-3-yloxy)phenyl)pent-4-ynyl)butanamide]
5.6 µM | CC[C@H](N)C(=O)NCCCC#Cc1ccc(-c2ccccc2)cc1 [Compound 81]
> 100 µM | CC[C@@H](N)C(=O)NCCCC#Cc1cccc(OC2CCNCC2)c1 [Compound 71]
1.37 µM | CC[C@H](N)C(=O)NCCCC#Cc1cccc(OC2CCNCC2)c1 [Compound 9]
9.5 µM | CC[C@H](N)C(=O)NCCCC#Cc1c(C)cc(C)cc1C [Compound 55]
1.2 µM | CC[C@H](N)C(=O)NCCCC#Cc1ccc(C(C)C)cc1 [Compound 95]
1.2 µM | C#CC[C@H](N)C(=O)NCCCC#Cc1cccc(O[C@H]2CCCNC2)c1 [Compound 85, (S)-2-amino-N-(5-(3-((S)-piperidin-3-yloxy)phenyl)pent-4-ynyl)pent-4-ynamide]
7.9 µM | CC[C@H](N)C(=O)NCCCC#Cc1cncc2ccccc12 [Compound 89]
3.9 µM | CC[C@H](N)C(=O)NCCCC#Cc1cccc(O[C@@H]2CCCNC2)c1 [Compound 78, (S)-2-amino-N-(5-(3-((R)-piperidin-3-yloxy)phenyl)pent-4-ynyl)butanamide]
0.35 µM | CC[C@H](N)C(=O)NCCCC#Cc1ccc(F)c(F)c1 [Compound 39]
12.8 µM | CC(C)[C@H](N)C(=O)NCCCC#Cc1cccc(OC2CCNCC2)c1 [Compound 16, (S)-2-amino-3-methyl-N-(5-(3-(piperidin-4-yloxy)phenyl)pent-4-ynyl)butanamide]
18 µM | CC[C@H](N)C(=O)NCCCC#Cc1ccc(S(C)(=O)=O)cc1 [Compound 56, (S)-2-amino-N-(5-(4-(methylsulfonyl)phenyl)pent-4-ynyl)butanamide]
5.92 µM | CCCC[C@H](N)C(=O)NCCCC#Cc1cccc(OC2CCNCC2)c1 [Compound 12]
0.39 µM | C#CC[C@H](N)C(=O)NCCCC#Cc1cccc(OC2CCNCC2)c1 [Compound 3, (S)-2-amino-N-(5-(3-(piperidin-4-yloxy)phenyl)pent-4-ynyl)pent-4-ynamide]
15 µM | CC[C@H](N)C(=O)NCCCC#Cc1ccc2c(c1)OCO2 [Compound 51]
